# From patent US9585391B2, “Pesticidal mixtures” (priority 2009, dated 2017)
# Assays:
# Assay type in all cases: in vivo
# cucumber cotyledons = test: growth (biomass) of cucumber cotyledons; conditions: for stimulation of the growth of the cotyledons: applied alone; for Mean cotyledon biomass: 4 days in the dark at 21.5° C.; for Observed efficacy: % biomass increase compared to the control
# Protocol: The effect of fluxapyroxad solo, dicamba solo and a mixture comprising both compounds on the growth (biomass) of cucumber cotyledons was evaluated. […] Subsequently, 20 to 30 cotyledons per treatment were cut and placed in a Petri dish containing 10 ml of the treatment solution as described below. Control cotyledons were treated with the 0.5% DMSO solution only. Following the incubation in the dark at 21.5° C. for 4 days the cotyledons were weight and the fresh biomass recorded (table 2). […] The efficacy of the tested active ingredients was calculated as % of biomass increase compared to the control: E=(a/b−1)·100 a corresponds to biomass of cotyledons after incubation in the treated plants in g; and b corresponds to biomass of cotyledons after incubation in the control in g. […] The expected efficacies of the combinations of the active ingredients were estimated using Colby's formula (Colby, S.
# wheat plants = test: water loss through transpiration of cut wheat plants (drought tolerance); conditions: for transpiration (water loss): applied alone
# Protocol: The transpiration as an direct indicator of water stress of wheat plants treated or not treated with fluxapyroxad solo, dicamba solo, and respective mixtures thereof was assessed. 10 to 14 days old wheat plants were cut above the ground and placed into Eppendorf caps containing 2.2 ml of the test solution as described below. The wheat plants were incubated for 24 h at 25° C. and 50% relative humidity in a growth chamber. The weight of the Eppendorf cap including the test solution but excluding the plant was assessed before and after incubation. The difference in weight was recorded as the loss of water through transpiration. This assay was used to asses the drought tolerance of the plants. In the present example wheat plants of the variety ‘Monopol’ were grown at 18° C. for 10 days in the greenhouse prior to the treatment and the incubation. 10 plants per treatment were treated and incubated as described. Fluxapyroxad and dicamba were dissolved on 0.5% DMSO. The tested concentrations are described in table 3. Control plants were treated with the blank 0.5% DMSO solution only. The efficacy of the tested compounds and mixtures was calculated as % of water loss compared to the control; […] The expected efficacies of the combinations of the compounds were estimated using Colby's formula (Colby, S.
# wheat leaves = test: relative weight loss of detached wheat leaves (drought tolerance); conditions: for fresh weight loss: applied alone
# Protocol: The relative weight loss of wheat leaves treated or not treated with fluxapyroxad, dicamba, and mixtures thereof as an indirect parameter for increased drought tolerance was assessed. Leaves of 10 to 14 days old wheat plants were detached and placed into Eppendorf caps containing 2.2 ml of the test solution as described below. The wheat leaves were incubated for 24 h at 25° C. and 50% relative humidity in a growth chamber. After incubation, the incubated leaves were removed from the solution and placed on filter paper in a growth chamber for 60 minutes (25° C., 50% rel. humidity). Fresh biomass of the leaves was assessed directly after incubation and in addition after 60 minutes. The difference in fresh weight was recorded as relative weight loss. The relative loss of fresh weight is calculated as: [formula] In the present example wheat plants of the variety ‘Monopol’ were grown at 18° C. for 10 days in the greenhouse prior to the treatment and the incubation. 10 plants per treatment were treated and incubated as described. Fluxapyroxad and dicamba were dissolved on 0.5% DMSO. Tested concentrations are described in table 4. Control plants were treated with the blank 0.5% DMSO solution only. The efficacy of the tested compounds and mixtures was calculated as % of relative weight loss compared to the control: […] The expected efficacies of the combinations of the compounds were estimated using Colby's formula (Colby, S.
smiles,measurement,setting,value
"COc1c(Cl)ccc(Cl)c1C(=O)O [Dicamba, dicamba]",stimulation of the growth of the cotyledons,cucumber cotyledons,no stimulation of the growth
same,Mean cotyledon biomass,cucumber cotyledons; dicamba 1.25 ppm,48.2 mg
same,Observed efficacy,cucumber cotyledons; dicamba 1.25 ppm,0.2%
same,Mean water loss,wheat plants; dicamba 1.25 ppm,0.781 g
same,Observed efficacy,wheat plants; dicamba 1.25 ppm,−4.8%
same,Mean water loss,wheat plants; dicamba 12.5 ppm,0.765 g
same,Observed efficacy,wheat plants; dicamba 12.5 ppm,−2.7%
same,Mean water loss,wheat plants; dicamba 125 ppm,0.737 g
same,Observed efficacy,wheat plants; dicamba 125 ppm,1.1%
same,transpiration (water loss),wheat plants; lower concentrations,increased transpiration
same,fresh weight loss,wheat leaves,reduced fresh weight loss
same,Mean relative weight loss,wheat leaves; dicamba 1.25 ppm,17.09%
same,Observed efficacy,wheat leaves; dicamba 1.25 ppm,10.69%
same,Mean relative weight loss,wheat leaves; dicamba 12.5 ppm,15.74%
same,Observed efficacy,wheat leaves; dicamba 12.5 ppm,17.76%
"Cn1cc(C(=O)Nc2ccccc2-c2cc(F)c(F)c(F)c2)c(C(F)F)n1 [Fluxapyroxad, N-(3′,4′,5′-trifluorobiphenyl-2-yl)-3-difluoromethyl-1-methyl-1H-pyrazole-4-carboxamide]",stimulation of the growth of the cotyledons,cucumber cotyledons,no stimulation of the growth
same,Mean cotyledon biomass,cucumber cotyledons; fluxapyroxad 5 ppm,47.1 mg
same,Observed efficacy,cucumber cotyledons; fluxapyroxad 5 ppm,−1.9%
same,Mean water loss,"wheat plants; fluxapyroxad 10 ppm, 24 h at 25° C., 50% relative humidity",1.061 g
same,Observed efficacy,"wheat plants; fluxapyroxad 10 ppm, water loss compared to the control",−42.4%
same,Mean water loss,wheat plants; fluxapyroxad 50 ppm,0.660 g
same,Observed efficacy,wheat plants; fluxapyroxad 50 ppm,11.5%
same,Mean water loss,wheat plants; fluxapyroxad 100 ppm,0.607 g
same,Observed efficacy,wheat plants; fluxapyroxad 100 ppm,18.5%
same,transpiration (water loss),wheat plants; higher concentrations,decreased transpiration
same,transpiration (water loss),wheat plants; lower concentrations,increased transpiration
same,fresh weight loss,wheat leaves,reduced fresh weight loss
same,Mean relative weight loss,"wheat leaves; fluxapyroxad 10 ppm, 24 h incubation, then 60 minutes on filter paper (25° C., 50% rel. humidity)",17.62%
same,Observed efficacy,"wheat leaves; fluxapyroxad 10 ppm, relative weight loss compared to the control",7.94%
same,Mean relative weight loss,wheat leaves; fluxapyroxad 50 ppm,13.61%
same,Observed efficacy,wheat leaves; fluxapyroxad 50 ppm,28.89%
